These results are taken from EP0138995B1, “REGULATION OF ENZYMES WHICH UTILIZE TETRAHYDROBIOPTERIN OR TETRAHYDROFOLATE COFACTORS WITH 6, 6-DISUBSTITUTED-TETRAHYDROPTERIDINES” (South Alabama Medical Science Foundation, priority 1983, dated 1984).

A short description of series [1]: Near-saturation concentration at neutral pH. It counts as physicochemical. The settings on record: organic solvent or mixture, in 0.5 M 2-mercaptoethanol, room temperature, read-out: concentration of an almost saturated solution. The method, then: 2-Amino-4-hydroxy-6-methyl-6-phenyl-5,6,7,8-tetrahydropteridine ([…]): The above dry quinoid-dihydropteridine was reduced in near quantitative yield by addition of 0.5 M 2-mercaptoethanol at room temperature, such that the final concentration of product was approximately 10 mM (an almost saturated solution at neutral pH). To obtain the pure dihydrochloride salt, this solution was rotary evaporated to an oil which was dissolved in 2M HCl in methanol and 4 volumes of ethyl ether added, and the precipitate collected by centrifugation and washed twice by resuspension in fresh ethyl ether, followed by centrifugation.

Series [2] concerns striatal tyrosine hydroxylase. The note with it: cited from earlier work.
The test system of series [3] is phenylalanine hydroxylase. The settings on record: cited from earlier work.
Series [4] in a line: Stability (decay) of quinoid-6,6-Me2PH2 monitored spectrophotometrically. It counts as physicochemical. The method, then:
Stability. The decay of q-6,6-Me₂PH₂ in a variety of environments was monitored spectrophotometrically. […] In water, a plateau of highest stability is observed near neutral pH. At pH 6.8, solutions kept on ice have a half-life greater than 100 hours. […] Loss of quinoid is somewhat increased in acid and greatly accelerated in base. […] This process is not affected by the presence of oxygen.

The target in series [5] is T1, Sheep Liver Dihydropteridine Reductase (Ovis aries, UniProt A0ACI6QPJ5).
T1 sequence (A0ACI6QPJ5 46-254): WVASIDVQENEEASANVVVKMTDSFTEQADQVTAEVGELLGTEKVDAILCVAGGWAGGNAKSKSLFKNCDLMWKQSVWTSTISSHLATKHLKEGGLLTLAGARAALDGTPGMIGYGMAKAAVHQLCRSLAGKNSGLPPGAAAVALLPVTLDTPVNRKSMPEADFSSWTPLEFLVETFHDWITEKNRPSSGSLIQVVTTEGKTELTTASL
The experiment in a line: Quinoid dihydropterin as substrate for dihydropteridine reductase (sheep liver). The class given is biochemical. The method, then:
The quinoid was generated from 6,6-Me₂PH₄, as outlined previously. […] Peroxidase (6 units/ml final volume) was temperature equilibrated in 0.1 M Tris·HCl, pH 7.4, at 27° for 5 minutes. H₂O₂ (1.2 mM final concentration) was then added, followed by 6,6-Me₂PH₄. Conversion to q-6,6-Me₂PH₂, monitored at 340 nm, was complete within a few seconds. • (iii) Generation by phenylalanine hydroxylase: […] At 5 minutes, 6,6-Me₂PH₄ was introduced and monitored at 340 nm. Conversion of 6,6-Me₂PH₄ to quinoid dihydropterin was complete in 1-7 minutes, depending on the concentration. […] Reaction was then initiated with dihydropteridine reductase (0.01 units/ml). Rates were calculated from the enzyme dependent decrease in O.D. at 340 nm, using an extinction coefficient of 9.8 for the chemically synthesized substrate and 6.2 for the peroxidase- and phenylalanine-hydroxylase-containing reactions in which the pterin is maintained in the quinoid form. […] This Km was obtained regardless of the method of generation of the quinoid dihydropterin. The Vmax's were also the same for the dihydropteridine reductase catalyzed reduction of quinoid generated by any of the three methods (Table VI). Thus, the quinoid products of each procedure appear to behave equally.

In series [6] the target is T2, Beef Liver Dihydropteridine Reductase (Bos taurus, UniProt Q3T0Z7).
T2 construct: from tissue; host or cells: beef liver
T2 sequence (Q3T0Z7 1-242): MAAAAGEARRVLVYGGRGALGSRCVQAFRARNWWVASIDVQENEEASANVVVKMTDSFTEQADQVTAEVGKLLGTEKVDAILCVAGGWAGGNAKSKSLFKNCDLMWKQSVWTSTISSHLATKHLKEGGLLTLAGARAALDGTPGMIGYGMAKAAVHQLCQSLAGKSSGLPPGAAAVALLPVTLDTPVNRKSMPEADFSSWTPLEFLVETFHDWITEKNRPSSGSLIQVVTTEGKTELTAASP
The experiment in a line: Quinoid dihydropterin as substrate for dihydropteridine reductase (beef liver). The class given is biochemical. Here is the method: The quinoid was generated from 6,6-Me₂PH₄, as outlined previously. […] Peroxidase (6 units/ml final volume) was temperature equilibrated in 0.1 M Tris·HCl, pH 7.4, at 27° for 5 minutes. H₂O₂ (1.2 mM final concentration) was then added, followed by 6,6-Me₂PH₄. […] At 5 minutes, 6,6-Me₂PH₄ was introduced and monitored at 340 nm. […] Reaction was then initiated with dihydropteridine reductase (0.01 units/ml). Rates were calculated from the enzyme dependent decrease in O.D. at 340 nm, using an extinction coefficient of 9.8 for the chemically synthesized substrate and 6.2 for the peroxidase- and phenylalanine-hydroxylase-containing reactions in which the pterin is maintained in the quinoid form.

A short description of series [7]: Non-enzymatic reduction of quinoid-6,6-Me2PH2 by physiological reducing agents. The class given is physicochemical. The settings on record: 0.1 M Tris·HCl, pH 7.4 at 37°. The method, then:
Non-Enzymatic Reduction of Quinoid-6,6-Me₂PH₂ under Physiological Conditions. Aromatic amino acid hydroxylase cofactor analogs which are relatively stable in the quinoid-dihydro form may have therapeutic potential for treatment of dihydropteridine reductase deficiency. Thus, it was of interest to determine the rate at which quinoid is reduced to the tetrahydropterin by various physiological reducing agents. Rates were measured in 0.1 M Tris·HCl, pH 7.4 at 37°, from the decrease in absorbance at 340 nm. A reaction first order in each component was observed. With NADH, NADPH and absorbic acid, the rate of reduction (k=660 M⁻¹min⁻¹) was the same. The rate with cysteine was about four times slower (k=160 M⁻¹min⁻¹).

The target in series [8] is T3, phenylalanine hydroxylase (Rattus norvegicus, UniProt P04176).
T3 construct: from tissue
T3 sequence (P04176 1-453): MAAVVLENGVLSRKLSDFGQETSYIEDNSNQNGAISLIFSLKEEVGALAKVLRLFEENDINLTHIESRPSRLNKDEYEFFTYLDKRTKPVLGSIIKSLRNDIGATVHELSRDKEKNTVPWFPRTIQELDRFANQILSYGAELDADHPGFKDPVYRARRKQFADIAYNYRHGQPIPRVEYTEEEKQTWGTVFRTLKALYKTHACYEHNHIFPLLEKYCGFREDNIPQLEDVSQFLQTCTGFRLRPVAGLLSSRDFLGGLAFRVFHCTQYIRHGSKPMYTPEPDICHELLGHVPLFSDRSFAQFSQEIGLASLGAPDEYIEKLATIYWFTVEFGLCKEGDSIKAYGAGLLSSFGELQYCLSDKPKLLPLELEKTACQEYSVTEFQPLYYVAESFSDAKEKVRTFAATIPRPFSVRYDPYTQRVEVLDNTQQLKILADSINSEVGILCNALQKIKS
The series can be described thus: Inhibition of phenylalanine hydroxylase by dihydropterins. The settings on record: concentrations up to 0.4 mM; 6,6-Me2PH4 as cofactor 0.05-0.3 mM. It counts as biochemical. Here is the method: Measurements were made under standard assay conditions with cofactor concentration varied between 0.05 and 0.3 mM. Stock solutions of 6,6-Me₂PH₂ were in 0.1 M assay buffer.
Standard assay conditions, with 6-MePH₄ as cofactor over a range of 0.05 mM to 0.3 mM, were employed.

Series [9] in a line: Spectrophotometric pKa determination of quinoid dihydropterin. It counts as physicochemical. The note with it: sodium succinate buffer; transition between neutral and monocationic species; sodium succinate buffers, I=0.01, 25°C. The method, then:
pKa. The pKa for the transition between the neutral and monocationic species of q-6,6-Me₂PH₂ was determined spectrophotometrically. A concentrated stock solution of quinoid, free of elemental bromine, in n-propanol was diluted to 0.1 mM into a series of sodium succinate buffers at constant ionic strength (I=0.01). Spectra, background corrected for each buffer individually, were acquired on a Perkin-Elmer 552 spectrophotometer thermostated to 25°C.

The conditions of series [10]: 2.75 mg (p.o.)/kg, one patient; cited from earlier work.
The conditions of series [11]: orally 0.6 mg-1.25 mg/kg; cited from earlier work.
The mark [12] stands for this setting: substrate produced by Bromine oxidation.
The mark [13] stands for this setting: substrate produced by Phe hydroxylase + phe.

≈ marks a conversion by molar mass, not a printed value. Like-named read-outs stand apart in the source and are kept apart here.

For `CC1(c2ccccc2)CNc2nc(N)nc(O)c2N1` (stereo not shown) [6-Phenyl-6-Methyl-PH4, 2-Amino-4-hydroxy-6-methyl-6-phenyl-5,6,7,8-tetrahydropteridine], the solubility in series [1] was roughly 10 mM (≈ 2570 µg/mL).
Take `Nc1nc2c(c(=O)[nH]1)NC(c1ccccc1)CN2` (stereo not shown) [Compound 6-Phenyl-PH4, 6-phenyltetrahydropterin]: the “increase of Vmax compared to tetrahydrobiopterin” value in series [2] is reported as 10 fold. In addition, the “decrease of Vmax compared to tetrahydrobiopterin” value in [3] is given as 10 fold.
Turning to `CC1(C)CNC2=NC(N)=NC(=O)C2=N1` [Quinoid-6,6-Me2PH2, 2-Amino-6,6-dimethyl-4-hydroxyquinoid-dihydropteridine], the “stability relative to the quinoid forms of 6-methyldihydropterin or dihydrobiopterin” value in [4] is “one to two orders of magnitude more stable”. Also, the half-life was 4 h in series [4] (0.1 m tris-hcl, air, pH 7.4, pH 7.4 (0.1 M Tris·HCl), 27°C, air, read-out: t 1/2 (converted)); 1.25 h in [4] (0.1 m tris-hcl, air, pH 7.4, pH 7.4 (0.1 M Tris·HCl), 37°C, air, read-out: t 1/2 (converted)); 1.25 h in series [4] (0.1 m tris-hcl, argon, pH 7.4, pH 7.4 (0.1 M Tris·HCl), 37°C, argon, read-out: t 1/2 (converted)); 0.75 h in [4] (1n hcl, air, pH 0, pH 0 (1N HCl), 37°C, air, read-out: t 1/2 (converted)); 0.75 h in series [4] (1n hcl, argon, pH 0, pH 0 (1N HCl), 37°C, argon, read-out: t 1/2 (converted)); “several weeks” in [4] (aerated (CH3)2SO at -80°C). The half-life was roughly 48 h in [4] (dmso, aerated (CH3)2SO at ambient temperature, read-out: half-life (converted)) and greater than 100 h in series [4] (tris-mes 0.1 m, air, pH 6.8, pH 6.8 (Tris-MES 0.1M), 0°C (on ice), air, read-out: t 1/2 (converted)). Also, the “rearrangement to a 7,8-dihydropterin” value in [4] (in contrast to quinoid dihydropterin monosubstituted at C6) is listed as “does not appear to rearrange to a 7,8-dihydropterin”. Moreover, the “t 1/2” value in series [4] (pH 6.8 (Tris-MES 0.1M), 0°C (on ice), air) amounted to 104 h. Also, in [4] (stored desiccated for several months at -80°C), the “storage stability of the dry powder” value was “no detectable change”. The “Relative Vmax Sheep” value in series [5] (setting [12]) and in series [5] (setting [13]) was 1 in each case. In addition, the “Relative Vmax Beef” value in series [6] (setting [12]), in [6] (substrate produced by Peroxidase + H2O2) and in series [6] (setting [13]) was 1 each time. Besides, the “rate of reduction (k)” value was found to be 11 M⁻¹ s⁻¹ in series [7] (with NADH), 11 M⁻¹ s⁻¹ in [7] (with NADPH), 11 M⁻¹ s⁻¹ in series [7] (with absorbic acid) and 2.67 M⁻¹ s⁻¹ in series [7] (with cysteine). Further, the “inhibition of purified phenylalanine hydroxylase” value in series [8] is “No inhibition”. This compound gave a pKa in series [9] of 5.15 ± 0.05.
As for `C[C@H](O)C(=O)C1=Nc2c(nc(N)[nH]c2=O)NC1` [sepiapterin], the “effect on neurological symptoms” value in series [10] is “shown to have an effect”. For the same compound, the “time normal levels of phenylalanine were maintained” value in series [11] is 24 h.
